According to patent US20220054658A1, “CONJUGATES” (Transfection Holdings Limited, priority 2018, published 2022):
Entries after “also recorded” stand apart in the source; their conditions may differ.

What was measured:
C. elegans = test: Conjugate uptake in C. elegans (dye and praziquantel conjugates, fluorescence microscopy); type: in vivo, Caenorhabditis elegans; details: 50 μM
Method: Nematode Growth Media (NGM) plates containing C. elegans were washed with 1.0-1.5 mL of standard M9 buffer and the washes were collected in an Eppendorf tube. The liquid containing the C. elegans was then spun for 1 min at room temperature at 10,000 rpm. The supernatant was removed, and fresh M9 buffer was added (500 μL) to generate a new stock solution of M9 buffer containing the C. elegans.
A C. elegans suspension (100 μL) was added a defined amount of M9 buffer (determined by the final desired concentration of compound to be tested: 399 μL in the case of the BODIPY tagged derivatives) contained within a separate Eppendorf tube. To this was then added a 25 mM solution of the compound in DMSO (1 μL). The resulting suspension was mixed using a vortex instrument.
The resulting mixture was incubated at room temperature for 2 to 4 h. in the dark (using aluminium foil to screen the tube, which was also stored in a cabinet).
Other samples were incubated overnight. Here, OP50 bacteria (3 μL) were added to the worms for feeding purposes, and the worms were kept in the dark at 20° C.
After the incubation, the tube contents were mixed gently by hand (typically by simple rotation of the tube), so as to achieve a homogenous suspension. A sample of the suspension (250 μL) was taken and mixed with M9 buffer (500 μL). The resulting suspension was placed in a centrifuge and spun at room temperature at 10,000 rpm for 1 min. The supernatant was removed, and the washing process was repeated twice more, each time using further quantities of fresh M9 buffer (500 μL each time). After the final washing sufficient supernatant was removed so as to leave a final sample volume of approximate 30 μL.
A 1.5% agarose solution in water was pre-warmed for 60 to 90 s. in a standard household style microwave (set to Power 4). Two drops of this solution was removed and placed on a glass slide. The glass slide was covered with a second glass slide. After 1 min., the slides were slid carefully apart, with the agarose remaining on one of the slides. Onto this slide was placed an aliquot of the final C. elegans solution (15 to 20 μL). To this was added a 20 mM sodium azide solution (5 μL) to inhibit nematode mobility. Vaseline was then placed around the agarose area before replacing the second slide. The slides were not pressed together.
The nematodes were then analysed using a Zeiss Axiskop 2 Plus microscope with a Hamamatsu Orca-ER (CA 742-95) camera. The images were resolved using OpenLab on a Mac operating system.
Compounds 1-11 were evaluated after 3 h and overnight incubation at a 50 μM concentration using the general uptake protocol described for C. elegans.
In order to compare the ability of a conjugate to improve the uptake of the drug praziquantel, two praziquantel derivatives were generated. Praziquantel was tagged with a BODIPY fluorescent tag (compound 12) and incorporated into a conjugate of the invention (compound 13). Compounds 12 and 13 were evaluated at a concentration of 50 μM using the C. elegans uptake protocol described above for compounds 1-11. Microscopic readings were taken after 3, 24 and 72 h.

P. falciparum = test: Plasmodium falciparum testing: uptake by infected and non-infected red blood cells; type: cell-based; details: 25 μM, 45 minutes, 37° C., synchronised stage and mix-stage cultures
Method: Compounds 1, 5, 9, 10 and 11 were tested for uptake in both synchronised stage and mix-stage cultures at 25 μM concentrations.

T. annulata = test: Theileria annulata testing: uptake; type: cell-based; details: 1 hour, 37° C.
Method: T. annulata were cultured using RPMI 1640 with 10% Albumax II (Thermo-Fisher) serum. A standard hemocytometer was used to calculate the concentration of cells in the parent culture. […] For each compound and concentration to be tested, 2 mL of the culture were centrifuged at 1,000 rpm for 5 minutes. The medium was removed before the cells were resuspended in 950 μL of complete medium containing the compound to be tested at the desired concentration. This was prepared from a 100 mM stock solution of compound in DMSO. Once the cells were resuspended they were transferred to a 5 well plate (1 mL capacity per well). They were then incubated for 1 hour at 37° C. in an atmosphere of 5% CO2 in air. After the incubations were complete the contents of each well were transferred to a 10 mL centrifuge tube. Cold RPMI 1640 (Thermofisher) or HBSS added to obtain a volume of 5 mL. The suspension was then centrifuged at 1,000 rpm and at 4° C. for 5 minutes. […] After the final washing the pellet of cells was resuspended in a minimum amount of RPMI 1640 and then spotted onto a glass slide. The slide was then covered with a cover slip and analysed using Olympus BX60 UV microscope system with a Spot RT3 camera and Spot Image software with a FITC fluorescent filter.

[1] = tested on: M. tuberculosis strain H37Rv; test: Uptake test in M. tuberculosis; type: cell-based, Mycobacterium tuberculosis; details: 50 μg/mL (~80 μM), room temperature, 45 min
[2] = tested on: mixed culture of wild type nematodes (roundworms, tape worms and flukes); test: Nematode testing: mixed culture of wild type nematodes; type: in vivo; details: 20 h incubation
Method: A mixed culture of wild type nematodes (roundworms, tape worms and flukes), obtained from Massey University's sheep farm, were incubated for 20 h with compound 14, compound and commercially available ivermectin B1a, as a control. The protocol followed is the same as the C. elegans protocol used previously.

[3] = tested on: gastrointestinal system (crop, midgut and rectum) of adult honey bees; test: Honey bee gut uptake test; parameters: species or system Apis mellifera; details: 100 μM, 33° C., 45 min
Method: Honey bee (A. mellifera) hives were obtained and allowed to feed ab libitum spring to autumn. During the winter period, pollen mixed with 50% (v/v) sucrose was added to the honey bee hives in order to provide sufficient food. Honey bees were dissected and gastrointestinal system was removed including the crop, midgut and rectum, and added immediately to 500 μL of the delivery vehicle to be tested sample diluted with PBS at 100 μM final concentration or DMSO (0.1%) control. The mixture was incubated for 45 min at 33° C.
The gastrointestinal system (crop, midgut and rectum) of adult honey bees was extracted, and incubated with derivatives 1, 2, 8 and 11 at 100 μM and 33° C. for 45 min.

B. bovis Texas strain = test: Short-term uptake test in B. bovis infected RBCs (confocal microscopy); details: 25 μM, 37° C., 45 min, ~5% PPE
Method: The parasite culture was centrifuged and washed once with GIT medium. RBC's were pellet down, and 20 μl infected RBC mixture (10 μl packed infected RBC+10 μl GIT) was prepared. Then, 180 μl GIT medium with compound the compound to be evaluated (final concentration 25 μM for BODIPY derivatives and 100 μM for phiLOV derivatives) or DMSO (0.1%)/PBS control was added. The samples were incubated for 45 min at 37° C. (Samples were stained 1 μg/mL diluted Hoechst 33342 in GIT medium). After incubation, the samples were centrifuged and the pellet was washed with GIT medium (3×). A final solution of 50% haematocrit infected RBC mixture was transferred to slides to be observed by confocal laser microscopy (Nikon A1).
Uptake experiments were performed by incubating the parasite (˜5% Parasitized Erythrocytes (PPE)) with each derivative at 25 μM and 37° C. for 45 min. After incubation, the fluorescence intensities were calculated from confocal microscope images.
The phiLOV double mutant (R475G, K476C) was used to generate derivatives P11, P1, P8, and P3 which were tested for uptake in B. bovis Texas strain using phiLOV as a control. The derivatives and the control were incubated at 100 μM and 37° C. for 45 min. After incubation, the samples were analysed under confocal microscopy using Hoeschst 33342 (Thermofisher) as co-stain.

T. brucei = test: Trypanosoma brucei testing: uptake; type: cell-based; details: 10-25 μM, 45 minutes, 37° C.
L. passim strain PRA-403 = test: Lotmaria passim parasite uptake test; type: cell-based; details: room temperature, 45 min
Method: 100 mM stock solutions of BODIPY derivatives were prepared with dimethylsulfoxide (DMSO). L passim strain PRA-403 (ATCC) was cultured in modified medium for C. bombi (Tognazzo et al.). The parasite culture was centrifuged, supernatant was removed and 500 μL of L passim medium with compound (final concentration 500, 100, 10 or 1 μM for BODIPY derivatives) or DMSO (0.1%) control was added. Incubated for 45 min at room temperature.
Uptake tests were performed at 1 μM and 100 μM final concentration of CJ-BODIPY derivatives. After incubation at room temperature for 45 min, fluorescence intensities were evaluated using a microplate reader.

Compound | uptake: location of fluorescence in C. elegans (C. elegans; 3 h incubation) | uptake: location of fluorescence in C. elegans (C. elegans; 20 h / overnight incubation) | uptake compared to other compounds (C. elegans; 20 h incubation) | uptake by infected and non-infected red blood cells (P. falciparum) | uptake in T. annulata (T. annulata) | uptake in M. tuberculosis (fluorescence intensity / microscopy) [1] | concentration at which nematodes showed paralysis [2] | fluorescence in honey bee gut (crop, midgut, rectum) [3] | uptake compared to compound 1 (% less) (B. bovis Texas strain) | further results
CC1=CC(C)=[N+]2C1=Cc1ccc(CCCn3cc(CCNC(=O)CCNC(=O)[C@@H]4OC(C)(C)OCC4(C)C)nn3)n1[B-]2(F)F [Compound 10, (R)—N-((((3-[4,4-Difluoro-5,7-dimethyl-4-bora-3a,4a-diaza-s-indacene-3-yl]propyl)-1H-1,2,3-triazol-4-yl)ethylamino)-3-oxopropyl)-2,2,5,5-tetramethyl-1,3-dioxane-4-carboxamide] | traces of compound 10 were detected in the gut cells and gut lumen of the larvae; also recorded: also visible to a lesser degree in the pharynx of the larvae | fluorescence was visible in the gut cells and in a smaller amount in the pharynx of the larval stages | comparable with the enamide compounds showing the least uptake | not taken up to any visible extent | very limited uptake | minimal uptake |  |  |  | 
4″-O—[(R,Z)-3-(2,2,5,5-Tetramethyl-1,3-dioxane-4-carboxamido)acrylate]avermectin B1a [Compound 14] |  |  |  |  |  |  | 5 µM |  |  | activity against nematodes relative to ivermectin B1a [2]: enhanced activity against nematodes relative to commercially available ivermectin B1a
CC1=CC(C)=[N+]2C1=Cc1ccc(CCCN=[N+]=[N-])n1[B-]2(F)F [Compound 11, 3-Azido[4,4-difluoro-5,7-dimethyl-4-bora-3a,4a-diaza-s-indacene-3-yl]propane, reference compound] | slight fluorescence after 3 h, focalized in the gut lumen and gut cells | no significant increase in fluorescence even after 20 h incubation |  | diffused into every red blood cell (both infected and non-infected) | diffused indiscriminately |  |  | showed only autofluorescence | 90% | 
CC1=CC(C)=[N+]2C1=Cc1ccc(CCCn3cc(CCNC(=O)CCNC(=O)[C@H](O)C(C)(C)CO)nn3)n1[B-]2(F)F [Compound 9, (R)—N-((((3-[4,4-Difluoro-5,7-dimethyl-4-bora-3a,4a-diaza-s-indacene-3-yl]propyl)-1H-1,2,3-triazol-4-yl)ethylamino)-3-oxopropyl)-2,4-dihydroxy-3,3-dimethylbutanamide] | traces of compound 9 were visible in the get cells and to a lesser extent 30 in the pharynx of both the larvae and the adult nematodes | small amounts of fluorescence could be detected in the gut cells of both larval and adult stages | the amount of fluorescence was lower than the enamide derivatives, compounds 1 to 8 | taken up very quickly by both infected and non-infected erythrocytes, with very little difference in uptake between the two sets of red blood cells | taken up by T. annulata; also recorded: taken up more rapidly and fluorescence can be detected at lower concentrations albeit it is also present in the infected lymphocyte |  |  |  |  | uptake compared to other compounds (C. elegans; 3 h incubation): the amount of fluorescence was lower than the enamide derivatives, compounds 1 to 8; uptake in T. brucei (T. brucei): taken up much more rapidly and in much higher concentrations than compound 5; also recorded: spread throughout the cell
CC1=CC(C)=[N+]2C1=Cc1ccc(CCCn3cc(CCNC(=O)/C=C\NC(=O)[C@H]4OC(C)(C)OCC4(C)C)nn3)n1[B-]2(F)F [Compound 2, (Z)—N-((((3-[4,4-Difluoro-5,7-dimethyl-4-bora-3a,4a-diaza-s-indacene-3-yl]propyl)-1H-1,2,3-triazol-4-yl)ethylamino)-3-oxoprop-1-enyl)-2,2,5,5-tetramethyl-1,3-dioxane-4-carboxamide] | traces of compound 2 were observed in the pharynx, gut cells and gut lumen of the larval stages | fluorescence was localised in the gut cells, gut lumen and to a lesser extent within the pharynx of the larvae |  |  |  | preferred over their S counterparts; also recorded: highest fluorescence signals; also recorded: fluorescence is localised at the poles |  | slight fluorescence in midgut and rectum, but none in the crop; also recorded: localised on the surface of the gut, but not inside of it | 90% | uptake in L. passim (fluorescence intensity, microplate reader) (L. passim strain PRA-403; 1 μM and 100 μM): highest reading amongst all the compounds tested; uptake in L. passim (fluorescence microscopy) (L. passim strain PRA-403; 500 μM): exhibited fluorescence in the parasite's cytosol, with the derivative forming fluorescence dots; fluorescence intensity compared to compound 1 [1]: around 2.5 times
CC[C@H](C)[C@H]1O[C@]2(CC[C@@H]1C)C[C@@H]1C[C@@H](C/C=C(\C)[C@@H](O[C@H]3C[C@H](OC)[C@@H](O[C@H]4C[C@H](OC)[C@@H](O)[C@H](C)O4)[C@H](C)O3)[C@@H](C)/C=C/C=C3\CO[C@@H]4[C@H](O)C(C)=C[C@@H](C(=O)O1)[C@]34O)O2 [ivermectin B1a, reference compound] |  |  |  |  |  |  | 50 µM |  |  | 
